Patent publication US6075033A, “Anthranilic acid diamides derivatives, their preparation and pharmaceutical use as anti-gastrin agents” (Rotta Research Laboratorium S.p.A, priority 1996, dated 2000)
Each block holds one molecule with its values, some of them ahead of it.

Assays:
[1] = molecular target: T1, type B (CCK-B) gastrin or cholecystokinin receptors (Oryctolagus cuniculus, UniProt P46627); assay: Inhibition of the increase in cytosol calcium induced by gastrin in rabbit gastric mucous-membrane cells; format: cell-based; settings: 5×10-8 gastrin
T1 construct: rabbit gastric mucous-membrane cells were prepared by conventional techniques; endogenous in cells; host or cells: dispersed rabbit gastric mucous-membrane cells (collagenase and pronase)
T1 sequence (P46627 1-452): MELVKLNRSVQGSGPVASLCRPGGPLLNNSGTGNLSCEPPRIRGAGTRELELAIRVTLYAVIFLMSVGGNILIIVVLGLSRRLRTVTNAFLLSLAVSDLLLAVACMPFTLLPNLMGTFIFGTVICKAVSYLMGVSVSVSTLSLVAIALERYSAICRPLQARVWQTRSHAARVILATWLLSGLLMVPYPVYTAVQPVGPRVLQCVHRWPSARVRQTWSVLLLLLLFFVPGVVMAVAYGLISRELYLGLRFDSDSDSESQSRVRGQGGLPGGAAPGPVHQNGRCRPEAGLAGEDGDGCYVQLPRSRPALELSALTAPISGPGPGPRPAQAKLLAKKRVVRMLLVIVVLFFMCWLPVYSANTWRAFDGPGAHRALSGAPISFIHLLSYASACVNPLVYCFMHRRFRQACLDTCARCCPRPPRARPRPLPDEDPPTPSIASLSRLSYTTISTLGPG
Excerpt: The parietal cells of the gastric mucous membrane are responsible for the secretion of HCl. They have specific membrane receptors which can be activated by gastrin and which have been defined as type B (CCK-B) gastrin or cholecystokinin receptors.
Since it has been observed that the activation of CCK-B receptors by gastrin leads to an increase in the level of cytosol calcium ions, a technique of measurement of the increase in intracellular calcium induced by gastrin in the presence and in the absence of the compounds of the invention was used as an indication of the anti-gastrin activity of the compounds.
Suspensions (0.8×10^6 /ml) of rabbit gastric mucous-membrane cells were prepared by conventional techniques with the use of collagenase and pronase as digestive enzymes; the basal [Ca^2+ ]i values, that is, those reached […] stimulation of the cellular system, were estimated in accordance with Grynkiewicz et al [J. Biol. Chem. 260 (1985), 3440]. In the control samples, the cells were stimulated with […], whereas in the samples in which the effect of the compounds of the invention was evaluated, the cells were incubated with these compounds before stimulation with gastrin. The results are expressed as percentage increments of [Ca^2+ ]i with reference to the control value. The anti-gastrin activity of the compounds was expressed as the IC50 value, that is, the concentration (in micromoles/liter) at which the response to the stimulus induced by gastrin was reduced by 50%.

[2] = tested on: rat; assay: Anxiolytic activity, elevated plus-maze in the rat; format: in vivo
Excerpt: An important role has in fact recently been postulated for the central CCK-B receptor in anxiety. […] In this experimental model, a compound having anxiolytic activity produces a % increase in the time spent in the open limbs and a % increase in the number of entries to the open limbs.
The results obtained are shown in Table 4 below, in which the activities obtained with various doses of compound 1 administered by an intraperitoneal route (IP) in comparison with a group of animals treated with physiological solution by the same route.

[3] = tested on: central CCK-B receptor; assay: Inhibition of the binding of [3H]-[pBC264]CCK-7 to guinea-pig cortex membranes; settings: CCK-B binding (Table 2) compared with CCK-A gall bladder activity
Excerpt: (§1) [3-H][pBC264]CCK-7 was used to evaluate the ability of the compounds of the invention to interact with the central CCK-B receptor. This ligand has been show: to be selective for the CCK-B receptors since it has an affinity for the cortex (CCK-B) receptors 3 logarithmic orders of magnitude greater than for those of the pancreas (CCK-A) in the guinea pig (C. Durieux et al. Eur. J. Pharmacol. 168 (1989 page 269].
(§2) Cerebral cortexes of male albino guinea pigs were therefore used with the method given above, to obtain a membrane content corresponding to about 300 mcg of proteins/ml incubated with a final concentration of 0.2 nM of radioligand.
(§3) The results obtained for some of the compounds of the invention are shown in Table 2 in which the IC50, that is, the concentration (in micromoles/liter) of the antagonist which can displace 50% of the [3-H](pBC264]CCK-7 from the receptor, is given.

[4] = molecular target: T2, central CCK-B receptor (Cavia porcellus, UniProt H0VZC5); assay: as above; settings: for IC50: guinea-pig cortex membranes, 0.2 nM radioligand, read-out: IC50, displacement of [3H][pBC264]CCK-7 from the receptor; for times less active than the corresponding (R) derivative: on average, CCK-B binding
T2 construct: Cerebral cortexes of male albino guinea pigs were therefore used; from tissue; host or cells: cerebral cortex membranes of male albino guinea pigs
T2 sequence (H0VZC5 1-426): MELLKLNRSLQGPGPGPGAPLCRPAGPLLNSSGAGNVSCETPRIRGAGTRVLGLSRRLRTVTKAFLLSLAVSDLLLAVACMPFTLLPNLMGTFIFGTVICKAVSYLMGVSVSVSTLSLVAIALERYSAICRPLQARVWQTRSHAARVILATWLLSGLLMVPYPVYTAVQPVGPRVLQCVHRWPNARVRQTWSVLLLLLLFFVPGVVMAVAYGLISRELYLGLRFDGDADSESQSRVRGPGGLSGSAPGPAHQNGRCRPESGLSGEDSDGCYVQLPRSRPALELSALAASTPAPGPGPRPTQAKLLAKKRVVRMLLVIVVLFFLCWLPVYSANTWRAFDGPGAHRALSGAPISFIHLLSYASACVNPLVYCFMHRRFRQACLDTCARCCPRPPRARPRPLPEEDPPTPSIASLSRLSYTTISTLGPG
Excerpt: as §1, §2, §3

- IC50, inhibition of gastrin-induced increase in cytosol calcium [1]: 4.3 nM
- affinity for the gastrin receptor (CCK-B) relative to the cholecystokinin receptor (CCK-A) [3]: at least 1000 times
- IC50 [4]: 5.1 nM
Structure (SMILES): Cc1cc(C)c(NC(=O)C[C@H](CC(=O)O)c2cccc3ccccc23)c(C(=O)N2CCC3(CCCC3)CC2)c1 [Compound 1]
- % effect Vs controls (entries open limbs/total entries) ([2]; 0.03 mg/kg I.P.): 32.6%
- % effect Vs controls (time open limbs/total time) ([2]; 0.03 mg/kg I.P.): 26.4%
- Entries open limbs/total entries (%) ([2]; 0.03 mg/kg I.P.): 42.2%
- Time open limbs/total time (%) ([2]; 0.03 mg/kg I.P.): 27.5%
- % effect Vs controls (entries open limbs/total entries) ([2]; 0.3 mg/kg I.P.): 31.5%
- % effect Vs controls (time open limbs/total time) ([2]; 0.3 mg/kg I.P.): 50.9%
- % of time spent in the open limbs vs control group (in words) ([2]; 0.3 mg/kg I.P.): this increase is significant
- Entries open limbs/total entries (%) ([2]; 0.3 mg/kg I.P.): 41.8%
- Time open limbs/total time (%) ([2]; 0.3 mg/kg I.P., (*) Duncan test p < 0.05 vs control group): 32.8%
- % effect Vs controls (entries open limbs/total entries) ([2]; 3.0 mg/kg I.P.): 26.3%
- % effect Vs controls (time open limbs/total time) ([2]; 3.0 mg/kg I.P.): 38.5%
- Entries open limbs/total entries (%) ([2]; 3.0 mg/kg I.P.): 40.2%
- Time open limbs/total time (%) ([2]; 3.0 mg/kg I.P.): 30.1%
- % of entries to the open limbs over total entries vs controls (in words) ([2]; dose range 0.03-3 mg/kg I.P.): increases the % of entries to the open limbs
- anxiolytic activity (in words) ([2]; plus maze, I.P.): shows anxiolytic activity

- IC50, inhibition of gastrin-induced increase in cytosol calcium [1]: 3.5 nM
- IC50 [4]: 2.5 nM
Structure (SMILES): Cc1cc(Cl)c(NC(=O)C[C@H](CC(=O)O)c2cccc3ccccc23)c(C(=O)N2CCC3(CCCC3)CC2)c1 [Compound 2]

- IC50, inhibition of gastrin-induced increase in cytosol calcium [1]: 68.8 nM
- IC50 [4]: 54.7 nM
- times less active than the corresponding (R) derivative [4]: ~10 times
Structure (SMILES): Cc1cc(C)c(NC(=O)C[C@@H](CC(=O)O)c2cccc3ccccc23)c(C(=O)N2CCC3(CCCC3)CC2)c1 [Compound 4]

- IC50, inhibition of gastrin-induced increase in cytosol calcium [1]: 82 nM
- IC50 [4]: 22.9 nM
- times less active than the corresponding (R) derivative [4]: ~10 times
Structure (SMILES): Cc1cc(Cl)c(NC(=O)C[C@@H](CC(=O)O)c2cccc3ccccc23)c(C(=O)N2CCC3(CCCC3)CC2)c1 [Compound 5]
